In paper PMC8225519, “A semi-mechanistic exposure–response model to assess the effects of verinurad, a potent URAT1 inhibitor, on serum and urine uric acid in patients with hyperuricemia-associated diseases” (Journal of Pharmacokinetics and Pharmacodynamics, 2021):
Several values for one entry are separate records, joined by “and”; a condition that tells them apart may be missing. Equal entries are not always repeated. Entries after “also recorded” stand apart in the source; their conditions may differ. Where two headings read alike, the source gives them in different places.

Assays:
URAT1 [1] = biological target: T1, URAT1 (Homo sapiens, UniProt Q96S37); assay: Semi-mechanistic exposure-response uric acid model: verinurad inhibition of uric acid reabsorption (clinical sUA/uUA data); assay type: in vivo
T1 construct: from tissue; host or cells: kidney (proximal tubule) of human study subjects, in vivo
T1 sequence (Q96S37 1-553): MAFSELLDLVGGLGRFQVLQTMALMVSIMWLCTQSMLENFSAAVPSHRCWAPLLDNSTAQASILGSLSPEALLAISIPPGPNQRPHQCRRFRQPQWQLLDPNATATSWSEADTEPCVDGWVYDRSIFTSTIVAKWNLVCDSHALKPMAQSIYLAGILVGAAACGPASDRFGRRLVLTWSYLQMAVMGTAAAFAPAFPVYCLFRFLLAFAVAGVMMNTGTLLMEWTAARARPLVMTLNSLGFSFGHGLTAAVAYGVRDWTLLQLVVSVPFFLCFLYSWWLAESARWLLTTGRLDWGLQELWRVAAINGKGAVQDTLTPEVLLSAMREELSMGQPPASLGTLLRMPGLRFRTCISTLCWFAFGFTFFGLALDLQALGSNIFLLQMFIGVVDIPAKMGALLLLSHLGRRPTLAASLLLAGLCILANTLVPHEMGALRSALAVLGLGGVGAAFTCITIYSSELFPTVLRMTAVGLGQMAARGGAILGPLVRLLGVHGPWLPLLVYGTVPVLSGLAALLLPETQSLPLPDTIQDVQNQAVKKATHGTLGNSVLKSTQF
Text: (§1) All available clinical data from studies where modified release (MR4) or extended release (ER8) verinurad formulations were used in the present analysis, comprising 12 clinical studies of verinurad and including single ascending dose (SAD), multiple ascending dose (MAD), drug-drug interaction (DDI), and several phase 2a studies in several patient populations. […] In total, 434 individuals were incorporated in the integrated analysis.
(§2) To model the uric acid in circulation and urine, a semi-mechanistic model of uric acid disposition was used as a structural model [23], and is reproduced here for the reader’s convenience.
Key kinetic processes that constitute renal handling of uric acid are glomerular filtration of uric acid and renal excretion of uric acid. Uric acid is freely filtered into the proximal tubule and is reabsorbed via urate transporters back into the systemic circulation [25]. The input rate of filtration (also known as the filtered load) of uric acid into the kidney from the circulation is denoted FLin (mg/h), which is modelled to be equal to the concentration of uric acid in the systemic compartment multiplied by the glomerular filtration flow rate (GFR). In this work, the GFR is approximated using the CKD-EPI formula [26]. In the following equations, estimated GFR (eGFR) is given in L/h (1 ml/min/1.73 m^2 = 0.06 L/h) to have consistent units.
The rate of renal excretion of uric acid is calculated as the product of the input filtration rate and the fractional excretion coefficient (FEUA).6 RR=FLin∗FEUA=eGFR∗CUA∗FEUA
Verinurad increases the excretion rate by inhibiting the reabsorption of uric acid back to the circulation. An Emax model is used to describe the stimulating drug action of the FEUA according to the relationship:7 RR=eGFR∗CUA∗FEUA+EmaxCV/EC50+CV where CV denotes the plasma concentration of verinurad. The value FEUA + Emax is the maximum possible fractional excretion of uric acid achieved with a very large dose of verinurad. The value of EC50 is the plasma concentration of verinurad that results in half-maximal inhibition of reabsorption, i.e. when the fractional excretion is FEUA + Emax/2. The renal excretion rate RR is the rate of accumulation of uric acid in the bladder and can be indirectly estimated by measuring accumulation of uric acid in final, collected urine.
(§3) The full system of differential equations of the model are the following, where A1 is the amount of uric acid (in mg) in the systemic circulation and A2 is the cumulative amount of uric acid (in mg) excreted in urine:8 dA1/dt=kin1-EmaxCX/EC50+CX-CLIA1/V1-eGFR∗A1/V1∗FEUA+EmaxCV/EC50+CVdA2/dt=eGFR∗A1/V1∗FEUA+EmaxCV/EC50+CVA10=V1kin/CLI+eGFR∗FEUAA20=0 where the initial condition A10 is calculated from steady-state assumption (solving the equation dA1/dt=0 ), and the initial condition for the cumulative amount in urine, A20, is set to zero.
In this work, we consider the extension to a mixed-effects model, with the ability to describe both mean response and variability in the population. In a mixed-effects model, parameters are modeled with statistical distributions to describe variability between individuals. We specified lognormal distributions for model parameters θi as follows:10 θi=θpopexpη where θpop is the typical value of the parameter in the population (median of the population distribution), and η is the random effect, normally distributed with mean zero and standard deviation ω. […]

URAT1 [2] = biological target: T1, URAT1; design: method as in PMID 21148271, PMID 18492088; settings: fixed, not estimated; consistent with FEUA in URAT1 loss of function mutations; cited from earlier work
xanthine oxidase (XO) [3] = biological target: T2, xanthine oxidase (XO) (Homo sapiens, UniProt P47989); design: method as in Aksenov et al. 2018 [23]; settings: fixed, not estimated; ref Aksenov et al. 2018 [23]; cited from earlier work
T2 construct: from tissue

xanthine oxidase (XO) [4] = biological target: T2, xanthine oxidase (XO); assay: Semi-mechanistic exposure-response uric acid model: XOI inhibition of uric acid production rate (clinical sUA/uUA data); assay type: in vivo
Text: as §1, §2
The key kinetic processes that constitute mass balance of uric acid in the body are production of uric acid, intestinal clearance, and renal clearance. The rate of change (mg/h) of the amount of uric acid in the systemic compartment A1 (mg) is given by the differential equation:1 dA1/dt=RP-RI-RR, where RP is the production rate, RI is intestinal elimination rate and RR is the renal excretion rate. The rate of intestinal elimination of uric acid (mg/h) is described by a first order kinetic process with respect to concentration of uric acid in the systemic compartment CUA (mg/L) according to:2 RI=CLI∗CUA where CLI is the intestinal clearance of uric acid (L/h). Concentration of uric acid in the systemic compartment is given by:3 CUA=A1/V1 where V1 is the volume of distribution (L).
as §3
In this work, we consider the extension to a mixed-effects model, with the ability to describe both mean response and variability in the population. In a mixed-effects model, parameters are modeled with statistical distributions to describe variability between individuals. We specified lognormal distributions for model parameters θi as follows:10 θi=θpopexpη where θpop is the typical value of the parameter in the population (median of the population distribution), and η is the random effect, normally distributed with mean zero and standard deviation ω.
The residual error model for concentration of uric acid in serum was an additive model (i.e. b = 0); for uric acid in urine, a combined additive and proportional model was used. […]

[5] = Population pharmacokinetic model, oxypurinol; assay type: in vivo, human
Text: CL = CLTYP * (1 + log(1+k*DOSE_[…]))
Where CLTYP is typical value of clearance and k is a coefficient for verinurad dose (1/mg).

T2 sequence (P47989 whole entry): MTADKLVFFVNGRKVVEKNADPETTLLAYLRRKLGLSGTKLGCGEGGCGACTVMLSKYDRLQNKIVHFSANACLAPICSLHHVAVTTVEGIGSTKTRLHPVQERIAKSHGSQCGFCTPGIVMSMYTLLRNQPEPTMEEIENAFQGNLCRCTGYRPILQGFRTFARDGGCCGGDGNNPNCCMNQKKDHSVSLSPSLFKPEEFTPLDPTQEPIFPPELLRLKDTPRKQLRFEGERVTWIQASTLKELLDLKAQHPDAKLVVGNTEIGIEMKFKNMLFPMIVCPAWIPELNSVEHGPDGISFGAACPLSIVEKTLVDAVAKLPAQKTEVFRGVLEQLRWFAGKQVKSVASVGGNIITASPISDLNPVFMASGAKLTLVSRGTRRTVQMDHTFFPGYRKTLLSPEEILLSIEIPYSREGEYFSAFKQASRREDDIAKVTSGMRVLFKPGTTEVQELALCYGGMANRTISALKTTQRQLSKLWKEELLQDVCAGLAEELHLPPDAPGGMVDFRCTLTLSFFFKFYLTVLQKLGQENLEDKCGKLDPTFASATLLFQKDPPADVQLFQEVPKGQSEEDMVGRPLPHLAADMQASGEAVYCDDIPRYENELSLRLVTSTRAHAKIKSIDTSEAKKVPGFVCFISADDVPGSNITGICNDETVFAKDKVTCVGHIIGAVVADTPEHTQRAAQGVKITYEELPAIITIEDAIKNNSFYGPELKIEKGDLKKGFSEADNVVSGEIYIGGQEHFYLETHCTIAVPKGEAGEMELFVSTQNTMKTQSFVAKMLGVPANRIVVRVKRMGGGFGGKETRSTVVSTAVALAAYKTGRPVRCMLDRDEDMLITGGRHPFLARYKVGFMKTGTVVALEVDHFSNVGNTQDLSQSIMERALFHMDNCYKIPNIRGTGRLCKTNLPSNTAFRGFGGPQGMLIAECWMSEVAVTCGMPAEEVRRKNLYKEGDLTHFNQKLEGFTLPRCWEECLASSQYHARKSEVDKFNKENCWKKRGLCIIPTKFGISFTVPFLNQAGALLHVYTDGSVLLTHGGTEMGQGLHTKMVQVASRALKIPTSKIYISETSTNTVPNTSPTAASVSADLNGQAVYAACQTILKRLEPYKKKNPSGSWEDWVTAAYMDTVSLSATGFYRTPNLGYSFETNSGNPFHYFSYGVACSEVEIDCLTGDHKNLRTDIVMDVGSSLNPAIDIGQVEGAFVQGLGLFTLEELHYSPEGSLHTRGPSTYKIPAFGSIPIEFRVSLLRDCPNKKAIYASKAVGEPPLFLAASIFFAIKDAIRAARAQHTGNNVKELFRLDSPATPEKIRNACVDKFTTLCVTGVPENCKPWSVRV

EC50 (URAT1 [1]; plasma concentration giving half-maximal inhibition of reabsorption, typical value, healthy volunteers, read-out: Verinurad EC50 (reducing uric acid reuptake) (converted)) | EC50 (URAT1 [1]; plasma concentration, symptomatic hyperuricemic (gout) patients, read-out: Verinurad EC50, symptomatic hyperuricemic (gout) subjects (converted)) | Verinurad EC50 difference, asymptomatic hyperuricemic patients versus healthy volunteers (URAT1 [1]; studies D5495C00001 and D5495C00007) | EC50 (xanthine oxidase (XO) [4]) [nM] | Decrease of oxypurinol exposure when administered together with verinurad ([5]; 12 mg verinurad, according to the model) | Vd ([5]; human, in vivo, oral, read-out: Central volume of distribution) [L] | Absorption rate constant ([5]; oxypurinol after allopurinol dosing, popPK estimate) [h⁻¹] | EC50 (xanthine oxidase (XO) [4]; plasma concentration giving half-maximal inhibition of production rate, typical value, read-out: EC50 (reducing uric acid production) (converted)) [nM] | Structure (SMILES) | Emax (maximum increase in fractional excretion of uric acid) (URAT1 [2]) | Emax (maximum inhibition of uric acid production) (xanthine oxidase (XO) [3]) | Febuxostat EC50 difference, healthy volunteers versus hyperuricemic patients (xanthine oxidase (XO) [4]; human, in vivo)
83.2 nM and 84.4 nM | 106 nM and 107 nM | no significant difference | – | – | – | – | – | CC(C)(Sc1ccncc1-c1ccc(C#N)c2ccccc12)C(=O)O [verinurad] | 0.7 | – | –
– | – | – | 405 | – | – | – | – | Cc1nc(-c2ccc(OCC(C)C)c(C#N)c2)sc1C(=O)O [febuxostat] | – | 1 | no differences; also recorded: not found to be significantly different
– | – | – | – | approximately 30% | 45.7 | 0.3343 | 85700 | O=c1[nH]c(=O)c2c[nH]nc2[nH]1 [oxypurinol] | – | 0.84 | –
